Results as given in US6255088A, “Enzymatic sulfation of biomolecules” (The Scripps Research Institute, priority 1999, dated 2001).
Where two headings read alike, the source gives them in different places.

Columns and labels:
NodST [1] = biological target: T1, NodST (Sinorhizobium meliloti, UniProt P06236); test: Continuous spectrophotometric coupled-enzyme assay of NodST with βAST-IV PAPS regeneration; assay type: biochemical, Rhizobium melioti
T1 sequence (P06236 1-247): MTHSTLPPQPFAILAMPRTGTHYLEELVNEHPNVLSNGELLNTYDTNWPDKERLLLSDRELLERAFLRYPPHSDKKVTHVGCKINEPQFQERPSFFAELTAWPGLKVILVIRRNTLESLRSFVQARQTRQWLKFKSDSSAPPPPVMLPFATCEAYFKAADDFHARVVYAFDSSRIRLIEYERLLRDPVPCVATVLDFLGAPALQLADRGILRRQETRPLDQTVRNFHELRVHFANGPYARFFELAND
Description: 100 mM bis-tris propane-HCl, pH 7.0, 5 mM 2-mercaptoethanol, 20 μM PAPS, 2 mM p-nitrophenyl sulfate, 3.0 mU NodST, 6.4 mU β-AST IV, and substrate are combined to a total volume of 500 μL. Because commercial PAPS contains significant amounts of PAP, the assay solution is incubated for 30 minutes at 20° C. prior to addition of substrate. The evolution of p-nitrophenol is monitored at 400 nm for 10 minutes.
All reactions were run in a total volume of 500 μL at 25° C. […] The amount of NodST added to each series of acceptor concentrations is varied over 1.2, 1.8, 3.0, and 4.2 mU. Because commercial PAPS contains significant amounts of PAP, the assay solution is incubated for 30 minutes at 20° C. prior to addition of substrate. The evolution of p-nitrophenol is monitored at 400 nm for 10 minutes.
3.0 mU of NodST was used in each reaction. The Km for each series of PAP concentrations was calculated and the values were compared.

NodST [2] = biological target: T1, NodST; conditions: non-coupled radioisotope thin-layer chromatography assay, 100 μM PAPS; read-out: published Km of acceptor for NodST; cited from earlier work
NodST [3] = biological target: T1, NodST; conditions: Lin et al. 1995; read-out: Ki, PAP inhibition of NodST; cited from earlier work
βAST-IV = biological target: T2, βAST-IV (Rattus norvegicus, UniProt P17988); test: Reverse-physiological reaction of βAST-IV (PAPS from PAP and p-nitrophenyl sulfate); assay type: biochemical; conditions: 10 mM p-nitrophenyl sulfate, pH 7.0, 25° C.
T2 construct: made in house; host or cells: E. coli BL21(DE3)
Description: All capillary zone electrophoresis (CZE) was run in 0.23 M borate in running buffer at pH 7.8. The column was pre-washed with H2 O (1 min), 1 N NaOH (1 min), and running buffer (2 min). The sample was pressure injected at 20 psi sec and electrophoresis was run with 20.0 kV (- to +) at 20° C. with detection at 260 nm. CZE of 1 mM standards PAPS, PAP, and 3'-adenosine monophosphate (3'-AMP) were run to determine retention times. The reverse-physiological reaction assay mixture, a 500 μL solution containing 50 mM bis-tris propane-HCl buffer at pH 7.0, 1 mM 2-mercaptoethanol, 10 mM p-nitrophenyl sulfate, and 1 mM PAP at 25° C., was subjected to CZE prior to addition of enzyme (t=0). 5 mU βAST-IV was added and CZE was repeated 30 minutes after initiation. The reaction was then diluted 100-fold and CZE was run again. A 2.0 μL internal standard of 10 mM PAPS was added, and CZE was repeated.
βAST-IV activity in the reverse-physiological reaction was determined at 25° C. with a total volume of 500 μL. The reverse-physiological assay above was used with varying PAP concentration (15.6, 31.3, 62.5, 125, 250, 500 μM). Measurement of initial velocity was conducted over 10 seconds at 400 nm, and an extinction coefficient of 1064 was used to calculate p-nitrophenol concentration at pH 7.0. […]

[4] = test system: hydroxysteroid sulfotransferase; conditions: Marcus et al. 1980, cited from earlier work
NodST [5] = biological target: T1, NodST; conditions: read-out: Km of NodST for PAPS; preliminary study
Description: To ensure that our coupled assay provides a steady-state PAPS concentration that is much greater than the Km of NodST, the Km experiments above were conducted with varying concentrations of PAPS to verify PAPS saturation. […] A previously published study using a radioisotopic thin-layer chromatography method to determine kinetic values of NodST maintained 100 μM PAPS concentration for all assays. Given that AST-IV maintains a constant concentration of PAPS through recycling, it is disclosed that 20 μM PAPS reaction concentration is sufficient for saturation conditions to maintain steady-state.

[6] = aqueous solution at pH 8.0; cited from earlier work

T2 sequence (P17988 whole entry): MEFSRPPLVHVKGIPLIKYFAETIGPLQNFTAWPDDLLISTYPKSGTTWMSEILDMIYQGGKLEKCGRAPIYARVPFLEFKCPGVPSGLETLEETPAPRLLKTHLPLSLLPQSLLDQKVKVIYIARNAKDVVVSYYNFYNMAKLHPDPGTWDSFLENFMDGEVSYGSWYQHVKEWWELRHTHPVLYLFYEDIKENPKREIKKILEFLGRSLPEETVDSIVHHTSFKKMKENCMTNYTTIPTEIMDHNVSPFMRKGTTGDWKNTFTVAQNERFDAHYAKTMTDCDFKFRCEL

SMILES: CC(=O)N[C@H]1[C@H](O[C@H]2[C@@H](O)[C@@H](CO)O[C@@H](O[C@H]3[C@H](O)[C@@H](NC(C)=O)C(O)O[C@@H]3CO)[C@@H]2O)O[C@H](CO)[C@@H](O[C@@H]2O[C@H](CO)[C@H](O)[C@H](O)[C@H]2O)[C@@H]1O (stereo partly drawn) [LacNAc dimer, Galβ(1,4)GlcNAcβ(1,3) Galβ(1,4)GlcNAc]
- increase in acceptor specificity from LacNAc to the LacNAc dimer (NodST [1]; NodST, coupled assay): sixty-fold increase

SMILES: CC(=O)N[C@H]1[C@H](O[C@H]2[C@H](O)[C@@H](NC(C)=O)[C@H](O[C@H]3[C@H](O)[C@@H](NC(C)=O)C(O)O[C@@H]3CO)O[C@@H]2CO)O[C@H](CO)[C@@H](O[C@@H]2O[C@H](CO)[C@@H](O[C@@H]3O[C@H](CO)[C@@H](O)[C@H](O)[C@H]3NC(C)=O)[C@H](O)[C@H]2NC(C)=O)[C@@H]1O (stereo partly drawn) [N,N',N",N'",N""-pentaacetylchito-pentaose]
- Km (NodST [2]): 190 µM

SMILES: CC(=O)N[C@H]1[C@H](O[C@H]2[C@H](O)[C@@H](NC(C)=O)C(O)O[C@@H]2CO)O[C@H](CO)[C@@H](O[C@@H]2O[C@H](CO)[C@@H](O[C@@H]3O[C@H](CO)[C@@H](O)[C@H](O)[C@H]3NC(C)=O)[C@H](O)[C@H]2NC(C)=O)[C@@H]1O (stereo partly drawn) [N,N',N",N'"-tetraacetylchitotetraose]
- kcat of acceptor with NodST (NodST [1]; apparent value, coupled assay, 20 μM PAPS, pH 7.0): 0.328 s⁻¹
- acceptor specificity for NodST, ranking among substrates (NodST [1]; coupled assay, among N-acetyl chitoses, LacNAc and LacNAc dimer): best substrate
- Km (NodST [2]): 140 µM

SMILES: CC(=O)N[C@H]1[C@H](O[C@H]2[C@H](O)[C@@H](NC(C)=O)C(O)O[C@@H]2CO)O[C@H](CO)[C@@H](O[C@@H]2O[C@H](CO)[C@@H](O)[C@H](O)[C@H]2NC(C)=O)[C@@H]1O (stereo partly drawn) [N,N',N"-triacetylchitotriose]
- kcat of acceptor with NodST, PAPS concentration study (NodST [1]; 20, 40 and 100 μM PAPS, all three within 10% variation, 3.0 mU NodST): ~23.6 s⁻¹

SMILES: Nc1ncnc2c1ncn2[C@@H]1O[C@H](COP(=O)(O)O)[C@@H](OP(=O)(O)O)[C@H]1O [PAP, adenosine 3',5'-diphosphate]
- Ki (NodST [3]): 0.1 µM
- Vmax of βAST-IV as a function of PAP concentration (βAST-IV): 6.04 ± 0.24 µmol/min
- enzyme product inhibition of sulfotransferases [4]: low-micromolar levels
- Ki ([4]; read-out: Ki, PAP inhibition of hydroxysteroid sulfotransferase): 14 µM

SMILES: Nc1ncnc2c1ncn2[C@@H]1O[C@H](COP(=O)(O)OS(=O)(=O)O)[C@@H](OP(=O)(O)O)[C@H]1O [PAPS, 3'-phosphoadenosine-5'-phosphosulfate]
- Km (NodST [5]): < 0.1 µM
- half-life of PAPS in aqueous solution [6]: approximately 20 hours
